The values that follow come from patent publication US20200008426A1, “ACTIVE COMPOUND COMBINATIONS” (BAYER AKTIENGESELLSCHAFT, priority 2017, published 2020).

Series [1] relates to Phakopsora pachyrhizi. Kind of series: In vivo preventive test on Phakopsora (soybeans). The following applies: Table C2, 7 days after inoculation.
For series [2], the system named is Alternaria solani. Kind of series: In vivo preventive test on Alternaria (tomatoes). The following applies: for Efficacy in % found: Table A1. On the procedure:
The plants are then placed in an incubation cabinet at approximately 20° C. and a relative atmospheric humidity of 100%.
The test is evaluated 3 days after the inoculation.

A short description of series [3]: LogP by HPLC on reversed phase columns (EEC directive 79/831 Annex V.A8). The following applies: LC-UV, acidic range, 0.1% formic acid in water and acetonitrile. The procedure:
Measurement of LogP values was performed according to EEC directive 79/831 Annex V.A8 by HPLC (High Performance Liquid Chromatography) on reversed phase columns with the following methods:
Lambda-max-values were determined using UV-spectra from 200 nm to 400 nm and the peak values of the chromatographic signals.

Where [4] appears, read: Alternaria solani, 72 h, read-out: Efficacy in % found.

Turning to `Cn1cc(C(=O)Nc2ccc(F)cc2-c2ccc(Cl)c(Cl)c2)c(C(F)F)n1` [2.002 bixafen, bixafen], the results for the “Efficacy in % found” value in series [1] (2.5 ppm a.i.), in series [1] (5 ppm a.i.) and in series [1] (10 ppm a.i.) were 0%, 0% and 15%, respectively.

In the case of `CC(C)C1CCC(Cc2ccc(Cl)cc2)C1(O)Cn1cncn1` (stereo not shown) [1.012 ipconazole, ipconazole], the “Efficacy in % found” value in series [2] (2.5 ppm a.i., 3 days after inoculation) is reported as 28%; in series [2] (5 ppm a.i., 3 days after inoculation), 67%; in series [2] (10 ppm a.i., 3 days after inoculation), 88%. Regarding `CON=C(C(=O)OC)c1ccccc1CON=C(C)c1cccc(C(F)(F)F)c1` [3.020 trifloxystrobin, trifloxystrobin], in series [2] (Alternaria solani, 72 h, Table A2, 1 ppm a.i., 3 days after inoculation, read-out: Efficacy in % found), the pest or weed control at 1 ppm came to 24%. The pest or weed control at 2 ppm in series [2] (Alternaria solani, 72 h, Table A2, 2 ppm a.i., 3 days after inoculation, read-out: Efficacy in % found) was 42%. Moreover, the pest or weed control at 4 ppm in series [2] (Alternaria solani, 72 h, Table A2, 4 ppm a.i., 3 days after inoculation, read-out: Efficacy in % found) stood at 53%. `N#Cc1c[nH]cc1-c1cccc2c1OC(F)(F)O2` [13.001 fludioxonil, fludioxonil]: in series [2] (setting [4]), the pest or weed control at 5 ppm turned out to be 77%, the pest or weed control at 10 ppm turned out to be 85% and the pest or weed control at 20 ppm came to 95%.

Take `OC(Cn1cncn1)c1cnc(Oc2ccc(C(F)(F)F)cc2)cc1C(F)(F)F` (racemic) [I.47]: the “LogP [a]” value in series [3] (Table 1, formula (I)) was 2.84^[a].

With `COc1ccc(Oc2ccc(C(C)=O)c(Cl)n2)c(Cl)c1` [V.29], the “LogP [a]” value in series [3] (Table 2, formula (V)) is 3.44^[a].

As to `CC(=O)c1cnc(Oc2ccc(C(F)(F)F)cc2)cc1C(F)(F)F` [V.25], the “LogP [a]” value in series [3] (Table 2, formula (V)) is 4.04^[a]. The same measure, in the same setting: the result for `CC(=O)c1cnc(Oc2ccc(C(F)F)cc2)cc1C(F)(F)F` [V.04] reads 3.62^[a]. For the compound `CC(O)(Cn1cncn1)c1ccc(Oc2ccc(Br)cc2)nc1C(F)(F)F` (single isomer, unassigned) [I.102], in series [3] (Table 1, formula (I)), the “LogP [a]” value was 2.94^[a]. Still for that read-out and setting: the result for `OC(Cn1cncn1)(c1ccc(Oc2ccc(Cl)cc2)nc1C(F)(F)F)C1CC1` (stereo not shown) [I.80] reads 3.32^[a]. The same measure, in the same setting: the value for `OC(Cn1cncn1)(c1ccc(Oc2ccc(Cl)cc2)nc1C(F)(F)F)C1CC1` (stereo not shown) [I.71] was 3.35^[a]. On the same count and under the same terms, the value for `CC(O)(Cn1cncn1)c1ccc(Oc2ccc(Cl)cc2)nc1OC(F)(F)F` (stereo not shown) [I.33] was 3.29^[a]; that for `Cc1cc(Cl)ccc1Oc1ccc(C(O)Cn2cncn2)c(Cl)n1` (stereo not shown) [I.15] was 2.75^[a]. As for `OC(Cn1cncn1)c1ccc(Oc2cc(F)c(F)c(F)c2)nc1Cl` (stereo not shown) [I.20], the “LogP [a]” value in series [3] (Table 1, formula (I)) is 1.65^[a]. Same read-out and setting: the result for `OC(Cn1cncn1)c1cnc(Oc2ccc(Br)cc2)cc1C(F)F` (stereo not shown) [I.63] reads 2.59^[a].

In the case of `CC(=O)c1ccc(Oc2ccc(Cl)c(Cl)c2)nc1Cl` [V.11], the “LogP [a]” value in series [3] (Table 2, formula (V)) is 4.10^[a].

For `Cc1ccc(Oc2ccc(C(O)Cn3cncn3)c(Cl)n2)cc1Cl` (stereo not shown) [I.16], the “LogP [a]” value in series [3] (Table 1, formula (I)) is 2.73^[a].

Take `CC(=O)c1cnc(Oc2ccc(C(F)(F)F)cc2)cc1Cl` [V.18]: the “LogP [a]” value in series [3] (Table 2, formula (V)) was 3.87^[a]. With `CC(O)(Cn1cncn1)c1cnc(Oc2ccc(C(F)(F)F)cc2)cc1C(F)(F)F` (stereo not shown) [I.50], in series [3] (Table 1, formula (I)), the “LogP [a]” value was 3.11^[a]. Still for that read-out and setting: the value for `CC(O)(Cn1cncn1)c1cnc(Oc2ccc(Cl)cc2F)cc1C(F)(F)F` (stereo not shown) [I.58] was 3.02^[a].

As to `CC(=O)c1ccc(Oc2ccc(S(F)(F)(F)(F)F)cc2)nc1C(F)(F)F` [V.16], the “LogP [a]” value in series [3] (Table 2, formula (V)) is 4.09^[a]. Turning to `OC(Cn1cncn1)c1ccc(Oc2ccc(Cl)cc2)nc1Cl` (stereo not shown) [I.14], in series [3] (Table 1, formula (I)), the “LogP [a]” value is 2.42^[a].

Regarding `OC(Cn1cncn1)c1ccc(Oc2ccc(C(F)F)cc2)nc1C(F)(F)F` (stereo not shown) [I.74], the “LogP [a]” value in series [3] (Table 1, formula (I)) is 2.49^[a].

Turning to `CC(=O)c1ccc(Oc2ccc(OC(F)(F)F)cc2)nc1Cl` [V.28], the “LogP [a]” value in series [3] (Table 2, formula (V)) is 3.89^[a]. As to `CC(O)(Cn1cncn1)c1ccc(Oc2ccc(Cl)cc2)nc1Cl` (single isomer, unassigned) [I.52], in series [3] (Table 1, formula (I)), the “LogP [a]” value was 2.62^[a].

Regarding `OC(Cn1cncn1)c1ccc(Oc2ccc(Cl)cc2)nc1OC(F)(F)F` (stereo not shown) [I.26], the “LogP [a]” value in series [3] (Table 1, formula (I)) was 2.92^[a]. For `CC(=O)c1ccc(Oc2ccc(S(F)(F)(F)(F)F)cc2)nc1Cl` [V.30], the “LogP [a]” value in series [3] (Table 2, formula (V)) was 3.99^[a]. Take `CCCCC(O)(Cn1cncn1)c1ccc(Oc2ccc(Cl)cc2)nc1C(F)(F)F` (racemic) [I.98]: the “LogP [a]” value in series [3] (Table 1, formula (I)) is 3.87^[a]. Still for that read-out and setting: the result for `OC(Cn1cncn1)(c1ccc(Oc2ccc(Br)cc2)nc1C(F)(F)F)C1CC1` (single isomer, unassigned) [I.99] reads 3.41^[a].
